According to patent publication US12077503B2, “Substituted cyclic amides and their use as herbicides” (FMC CORPORATION, priority 2015, dated 2024):

Columns and labels:
Assay type in all cases: in vivo
[1] = system: barnyardgrass (Echinochloa crus-galli); assay: Test F flooded paddy test; design: key: 0 = no effect, 100 = complete control; conditions: Flood
[2] = system: bearded sprangletop (Leptochloa fascicularis); assay: Test F flooded paddy test; design: key: 0 = no effect, 100 = complete control; conditions: Flood
[3] = system: rice flatsedge (Cyperus iria); assay: Test F flooded paddy test; design: key: 0 = no effect, 100 = complete control; conditions: Flood
[4] = system: sedge, umbrella (small-flower umbrella sedge, Cyperus difformis); assay: Test F flooded paddy test; design: key: 0 = no effect, 100 = complete control; conditions: Flood
[5] = system: transplanted rice seedlings (Oryza sativa cv. ‘Japonica—M202’); assay: Test F flooded paddy test; design: key: 0 = no effect, 100 = complete control; conditions: Flood
[6] = system: water seeded rice seedlings (Rice, W. S. Jap, Oryza sativa cv. ‘Japonica—M202’); assay: Test F flooded paddy test; design: key: 0 = no effect, 100 = complete control; conditions: Flood
[7] = system: barnyardgrass (Echinochloa crus-galli); assay: Test G Post-Emergence Protocol; conditions: Echinochloa crus-galli, post-emergence, 312 h; for pest or weed control at 15.625 g/ha: 15.625 g ai/ha, evaluated after 13 days (100=total damage to plant; 0=no damage to plant), read-out: Barnyardgrass damage rating; for pest or weed control at 62.5 g/ha: 62.5 g ai/ha, read-out: Barnyardgrass damage rating (100=total damage to plant; 0=no damage to plant); for pest or weed control at 62.5 g/ha / pest or weed control at 250 g/ha: evaluated after 13 days; for pest or weed control at 250 g/ha: 250 g ai/ha, read-out: damage to plant, Barnyardgrass (100=total damage to plant; 0=no damage to plant)
Method: (§1) Seeds of corn (Zea mays), giant foxtail (Setaria faberi), barnyardgrass (Echinochloa crus-galli), ivy-leaved morning glory (Ipomoea hederacea), redroot pigweed (Amaranthus retroflexus) and velvetleaf (Abutilon theophrasti) were sown in standard soil in pots. After cultivation for 8 days under controlled conditions in a glasshouse (at 24/16° C., day/night; 14 hours light; 65% humidity), the plants were sprayed with an aqueous spray solution derived from the formulation of the technical active ingredient in acetone/water (50:50) solution containing 0.5% Tween 20 (polyoxyethylene sorbitan monolaurate, CAS RN 9005-64-5) to give a final dose of 15.625, 62.5 or 250 g/ha of test compound.
(§2) The test plants were then grown on under controlled conditions in a glasshouse (at 24/16° C., day/night; 14 hours light; 65% humidity) and watered twice daily. After 13 days the test was evaluated (100=total damage to plant; 0=no damage to plant). A dash (-) means no test result.

corn (Zea mays) = assay: Test G Post-Emergence Protocol; conditions: Zea mays, post-emergence, 312 h; for plant injury at 15.625 g/ha: 15.625 g ai/ha, evaluated after 13 days (100=total damage to plant; 0=no damage to plant), read-out: Corn damage rating; for plant injury at 62.5 g/ha: 62.5 g ai/ha, read-out: Corn damage rating (100=total damage to plant; 0=no damage to plant); for plant injury at 62.5 g/ha / plant injury at 250 g/ha: evaluated after 13 days; for plant injury at 250 g/ha: 250 g ai/ha, read-out: damage to plant, Corn (100=total damage to plant; 0=no damage to plant)
Method: as §1, §2

[8] = system: giant foxtail (Setaria faberi); assay: Test G Post-Emergence Protocol; conditions: Setaria faberi, post-emergence, 312 h; for pest or weed control at 15.625 g/ha: 15.625 g ai/ha, evaluated after 13 days (100=total damage to plant; 0=no damage to plant), read-out: Foxtail, Giant damage rating; for pest or weed control at 62.5 g/ha: 62.5 g ai/ha, read-out: Foxtail, Giant damage rating (100=total damage to plant; 0=no damage to plant); for pest or weed control at 62.5 g/ha / pest or weed control at 250 g/ha: evaluated after 13 days; for pest or weed control at 250 g/ha: 250 g ai/ha, read-out: damage to plant, Foxtail, Giant (100=total damage to plant; 0=no damage to plant)
Method: as §1, §2

[9] = system: ivy-leaved morning glory (Ipomoea hederacea); assay: Test G Post-Emergence Protocol; conditions: Ipomoea, post-emergence, 312 h; for pest or weed control at 15.625 g/ha: 15.625 g ai/ha, evaluated after 13 days (100=total damage to plant; 0=no damage to plant), read-out: Morningglory, Ivy-leaved damage rating; for pest or weed control at 62.5 g/ha: 62.5 g ai/ha, read-out: Morningglory, Ivy-leaved damage rating (100=total damage to plant; 0=no damage to plant); for pest or weed control at 62.5 g/ha / pest or weed control at 250 g/ha: evaluated after 13 days; for pest or weed control at 250 g/ha: 250 g ai/ha, read-out: damage to plant, Morningglory, Ivy-leaved (100=total damage to plant; 0=no damage to plant)
Method: as §1, §2

[10] = system: redroot pigweed (Amaranthus retroflexus); assay: Test G Post-Emergence Protocol; conditions: Amaranthus retroflexus, post-emergence, 312 h; for pest or weed control at 15.625 g/ha: 15.625 g ai/ha, evaluated after 13 days (100=total damage to plant; 0=no damage to plant), read-out: Pigweed, Redroot damage rating; for pest or weed control at 62.5 g/ha: 62.5 g ai/ha, read-out: Pigweed, Redroot damage rating (100=total damage to plant; 0=no damage to plant); for pest or weed control at 62.5 g/ha / pest or weed control at 250 g/ha: evaluated after 13 days; for pest or weed control at 250 g/ha: 250 g ai/ha, read-out: damage to plant, Pigweed, Redroot (100=total damage to plant; 0=no damage to plant)
Method: as §1, §2

[11] = system: velvetleaf (Abutilon theophrasti); assay: Test G Post-Emergence Protocol; conditions: Abutilon theophrasti, post-emergence, 312 h; for pest or weed control at 15.625 g/ha: 15.625 g ai/ha, evaluated after 13 days (100=total damage to plant; 0=no damage to plant), read-out: Velvetleaf damage rating; for pest or weed control at 62.5 g/ha: 62.5 g ai/ha, read-out: Velvetleaf damage rating (100=total damage to plant; 0=no damage to plant); for pest or weed control at 62.5 g/ha / pest or weed control at 250 g/ha: evaluated after 13 days; for pest or weed control at 250 g/ha: 250 g ai/ha, read-out: damage to plant, Velvetleaf (100=total damage to plant; 0=no damage to plant)
Method: as §1, §2

CN1CC(c2cccc(OC(F)F)c2)C(C(=O)Nc2ccc(F)cc2F)C1=O (stereo not drawn) [Compound 617]
80: Plant response rating: Sprangletop, Brdd. ([2]; 64 g ai/ha)
100: Plant response rating: Barnyardgrass ([1]; 125 g ai/ha) | Plant response rating: Barnyardgrass ([1]; 250 g ai/ha)
20: Plant response rating: Rice, Water Seed. ([6]; 125 g ai/ha)
60: Plant response rating: Barnyardgrass ([1]; 32 g ai/ha) | Plant response rating: Rice, Water Seeded ([6]; 250 g ai/ha)
0: Plant response rating: Sprangletop, Brdd. ([2]; 32 g ai/ha) | Plant response rating: Flatsedge, Rice ([3]; 32 g ai/ha) | Plant response rating: Flatsedge, Rice ([3]; 64 g ai/ha) | Plant response rating: Flatsedge, Rice ([3]; 125 g ai/ha) | Plant response rating: Flatsedge, Rice ([3]; 250 g ai/ha) | Plant response rating: Sedge, Umbrella ([4]; 32 g ai/ha) | Plant response rating: Sedge, Umbrella ([4]; 64 g ai/ha) | Plant response rating: Sedge, Umbrella ([4]; 125 g ai/ha) | Plant response rating: Sedge, Umbrella ([4]; 250 g ai/ha) | Plant response rating: Rice, Transplanted ([5]; 32 g ai/ha) | Plant response rating: Rice, Transplanted ([5]; 64 g ai/ha) | Plant response rating: Rice, Transplanted ([5]; 125 g ai/ha) | Plant response rating: Rice, Transplanted ([5]; 250 g ai/ha) | Plant response rating: Rice, Water Seeded ([6]; 32 g ai/ha) | Plant response rating: Rice, Water Seed. ([6]; 64 g ai/ha)
90: Plant response rating: Sprangletop, Brdd. ([2]; 250 g ai/ha)
85: Plant response rating: Barnyardgrass ([1]; 64 g ai/ha) | Plant response rating: Sprangletop, Brdd. ([2]; 125 g ai/ha)

CN1C[C@H](c2ccc(Cl)cc2)[C@@H](C(=O)Nc2cccc(F)n2)C1=O [Compound 1399]
40%: pest or weed control at 15.625 g/ha [7] | pest or weed control at 62.5 g/ha [11] | pest or weed control at 250 g/ha [11]
80%: pest or weed control at 250 g/ha [7] | pest or weed control at 62.5 g/ha [8] | pest or weed control at 250 g/ha [8]
60%: pest or weed control at 15.625 g/ha [8] | pest or weed control at 250 g/ha [10]
10%: pest or weed control at 15.625 g/ha [9]
70%: pest or weed control at 62.5 g/ha [7] | pest or weed control at 250 g/ha [9]
20%: pest or weed control at 62.5 g/ha [10]
30%: plant injury at 250 g/ha (corn (Zea mays)) | pest or weed control at 62.5 g/ha [9]
0%: plant injury at 15.625 g/ha (corn (Zea mays)) | plant injury at 62.5 g/ha (corn (Zea mays)) | pest or weed control at 15.625 g/ha [10] | pest or weed control at 15.625 g/ha [11]

Cc1ccc(C2CN(C)C(=O)C2C(=O)Nc2ccccc2F)cc1F (stereo not drawn) [Compound 465]
100: Plant response rating: Barnyardgrass ([1]; 32 g ai/ha) | Plant response rating: Barnyardgrass ([1]; 64 g ai/ha) | Plant response rating: Barnyardgrass ([1]; 125 g ai/ha) | Plant response rating: Barnyardgrass ([1]; 250 g ai/ha)
15: Plant response rating: Rice, Transplanted ([5]; 250 g ai/ha)
35: Plant response rating: Rice, Water Seed. ([6]; 125 g ai/ha)
0: Plant response rating: Flatsedge, Rice ([3]; 32 g ai/ha) | Plant response rating: Flatsedge, Rice ([3]; 64 g ai/ha) | Plant response rating: Flatsedge, Rice ([3]; 125 g ai/ha) | Plant response rating: Flatsedge, Rice ([3]; 250 g ai/ha) | Plant response rating: Sedge, Umbrella ([4]; 32 g ai/ha) | Plant response rating: Sedge, Umbrella ([4]; 64 g ai/ha) | Plant response rating: Sedge, Umbrella ([4]; 125 g ai/ha) | Plant response rating: Sedge, Umbrella ([4]; 250 g ai/ha) | Plant response rating: Rice, Transplanted ([5]; 32 g ai/ha) | Plant response rating: Rice, Transplanted ([5]; 64 g ai/ha) | Plant response rating: Rice, Transplanted ([5]; 125 g ai/ha) | Plant response rating: Rice, Water Seeded ([6]; 32 g ai/ha) | Plant response rating: Rice, Water Seed. ([6]; 64 g ai/ha)
95: Plant response rating: Sprangletop, Brdd. ([2]; 125 g ai/ha) | Plant response rating: Sprangletop, Brdd. ([2]; 250 g ai/ha)
60: Plant response rating: Rice, Water Seeded ([6]; 250 g ai/ha)
85: Plant response rating: Sprangletop, Brdd. ([2]; 32 g ai/ha) | Plant response rating: Sprangletop, Brdd. ([2]; 64 g ai/ha)

CN1C[C@H](c2ccc(C(F)(F)F)cc2)[C@@H](C(=O)Nc2cccnc2F)C1=O [Compound 1396]
80%: pest or weed control at 15.625 g/ha [7] | pest or weed control at 62.5 g/ha [7] | pest or weed control at 250 g/ha [7] | plant injury at 62.5 g/ha (corn (Zea mays)) | pest or weed control at 15.625 g/ha [8] | pest or weed control at 62.5 g/ha [8] | pest or weed control at 250 g/ha [8] | pest or weed control at 250 g/ha [10]
30%: pest or weed control at 62.5 g/ha [11]
40%: pest or weed control at 15.625 g/ha [9] | pest or weed control at 15.625 g/ha [11]
70%: plant injury at 15.625 g/ha (corn (Zea mays)) | plant injury at 250 g/ha (corn (Zea mays)) | pest or weed control at 15.625 g/ha [10] | pest or weed control at 62.5 g/ha [10]
60%: pest or weed control at 62.5 g/ha [9] | pest or weed control at 250 g/ha [9] | pest or weed control at 250 g/ha [11]
